The supplement of paper PMC8882468
± gives the standard deviation of the averaged measurements.

Columns and labels:
Assay in all cases: CTG-3D luminescence at 96 h relative to day-0 seeding control (ratio to day 0); higher = more growth / less cytotoxicity; PDxO 3D drug screen, 96 h, CTG-3D normalised to day-0 seeding control.
HCI-008 = test system: HCI-008 (organoid from a HER2-enriched breast cancer xenograft)
HCI-017.E2 = test system: HCI-017.E2 (organoid from an ER-positive breast cancer xenograft)
HCI-025 = test system: HCI-025 (organoid from a breast cancer xenograft)
MDA-MB-231 = test system: MDA-MB-231
HCI-005.E2 = test system: HCI-005.E2 (organoid from a breast cancer xenograft with a HER2-positive history)
HCI-019 = test system: HCI-019 (organoid from a triple-negative breast cancer xenograft)
HCI-016 = test system: HCI-016 (organoid from a triple-negative breast cancer xenograft)

CC[C@H](NC(=O)[C@H](C)NC)C(=O)N1C[C@@H](O)C[C@H]1Cc1c(-c2[nH]c3cc(F)ccc3c2C[C@@H]2C[C@H](O)CN2C(=O)[C@H](CC)NC(=O)[C@H](C)NC)[nH]c2cc(F)ccc12 [birinapant]
CTG-3D luminescence at 96 h
Conditions | 12.5 pM | 0.00025 µM | 0.005 µM | 0.1 µM | 1 µM | 10 µM | 100 µM | 625 fM
HCI-008, days in culture: 228 | 1.3 ± 0.2 | 1.73 ± 0.48 | 0.611 ± 0.22 | 0.11 ± 0.23 | 0.147 ± 0.19 | 0.206 ± 0.13 | 0.162 ± 0.073 | 1.43 ± 0.37
HCI-008, days in culture: 244 | 1.27 | 1.82 | 1.05 | 0.549 | 0.521 | 0.713 | 0.51 | 2.04
HCI-016, days in culture: 153 | 2.99 | 2.23 | 2.64 | 2.39 | 2.94 | 2.86 | 0.41 | 2.37
HCI-016, days in culture: 172 | 2.25 | 1.67 | 1.82 | 1.23 | 1.56 | 1.24 | 0.122 | 1.58
HCI-016, days in culture: 190 | 1.66 | 1.27 | 1.52 | 1.09 | 1.38 | 1.36 | 0.309 | 0.99
HCI-016, days in culture: 199 | 1.54 | 1.36 | 1.44 | 1.52 | 1.54 | 1.23 | 0.204 | 1.7
HCI-017.E2, days in culture: 85 | 3.2 | 2.88 | 2.45 | 2.38 | 2.5 | 1.82 | 1.64 | 2.6
HCI-019, days in culture: 110 | 1.9 | 2.21 | 1.18 | 0.993 | 0.634 | 1.01 | 0.351 | 1.87
HCI-019, days in culture: 131 | 2.64 | 3.89 | 2.09 | 3.03 | 1.34 | 2.65 | 0.638 | 3.16
HCI-019, days in culture: 152 | 2.72 | 2 | 2.1 | 1.49 | 0.853 | 1.05 | 0.336 | 1.84
HCI-025, days in culture: 172 | 2.24 | 1.37 | 1.16 | 0.15 | 0.319 | 0.166 | 0.0157 | 1.82
HCI-025, days in culture: 209 | 1.87 | 1.95 | 1.01 | 0.628 | 0.388 | 0.374 | 0.241 | 1.9
HCI-025, days in culture: 218 | 1.84 | 1.78 | 1.79 | 1.23 | 0.859 | 0.811 | 0.542 | 1.83

CTG-3D luminescence at 96 h
Conditions | 12.5 pM | 0.00025 µM | 0.005 µM | 0.1 µM | 1 µM | 10 µM | 100 µM | 625 fM
HCI-005.E2 | 1.74 ± 0.57 | 1.66 ± 0.75 | 1.74 ± 0.43 | 1.77 ± 0.47 | 1.79 ± 0.48 | 1.51 ± 0.84 | 1.29 ± 0.3 | 1.76 ± 0.26
HCI-017.E2 | 1.76 ± 0.14 | 2.26 ± 0.1 | 2.2 ± 0.28 | 2.01 ± 0.16 | 2.21 ± 0.09 | 2.12 ± 0.028 | 1.51 ± 0.092 | 2.35 ± 0.26
MDA-MB-231 | 4.36 ± 1.2 | 4.2 ± 1.2 | 4.35 ± 1.2 | 1.96 ± 1.1 | 2 ± 1.3 | 2.03 ± 1.1 | 2.41 ± 0.96 | 4.39 ± 1.2

CCc1c2c(nc3ccc(O)cc13)-c1cc3c(c(=O)n1C2)COC(=O)[C@]3(O)CC [SN-38]
CTG-3D luminescence at 96 h
Conditions | 12.5 pM | 0.00025 µM | 0.005 µM | 0.1 µM | 1 µM | 10 µM | 100 µM | 625 fM
HCI-008, days in culture: 228 | 1.72 ± 0.38 | 1.6 ± 0.048 | 0.948 ± 0.27 | 0.349 ± 0.04 | 0.21 ± 0.049 | 0.132 ± 0.11 | 0.111 ± 0.082 | 1.93 ± 0.54
HCI-008, days in culture: 244 | 1.28 | 1.83 | 1.31 | 0.575 | 0.202 | 0.12 | 0.119 | 2.23
HCI-016, days in culture: 153 | 2.8 | 1.73 | 1.68 | 0.253 | 0.0495 | 0.0432 | 0.0259 | 2.02
HCI-016, days in culture: 172 | 2.16 | 2.11 | 1.21 | 0.157 | 0.0512 | 0.021 | 0.019 | 1.22
HCI-016, days in culture: 190 | 1.83 | 1.12 | 1.17 | 0.151 | 0.0473 | 0.0272 | 0.0195 | 1.25
HCI-016, days in culture: 199 | 1.87 | 1.62 | 1.36 | 0.126 | 0.0472 | 0.0229 | 0.0167 | 1.92
HCI-017.E2, days in culture: 85 | 2.43 | 2.66 | 1.7 | 2.32 | 1.23 | 0.584 | 0.428 | 2.19
HCI-019, days in culture: 110 | 1.82 | 1.78 | 0.471 | 0.295 | 0.238 | 0.127 | 0.0625 | 2.53
HCI-019, days in culture: 131 | 3.04 | 2.79 | 0.948 | 0.312 | 0.308 | 0.107 | 0.169 | 3.56
HCI-019, days in culture: 152 | 3.21 | 3.38 | 1.51 | 0.48 | 0.521 | 0.106 | 0.0856 | 2.26
HCI-025, days in culture: 172 | 3.42 | 1.7 | 2.12 | 0.486 | 0.295 | 0.0768 | 0.0418 | 2.35
HCI-025, days in culture: 209 | 1.97 | 2.36 | 1.12 | 0.295 | 0.181 | 0.0722 | 0.0384 | 1.53
HCI-025, days in culture: 218 | 1.5 | 1.73 | 0.75 | 0.244 | 0.0898 | 0.0616 | 0.0407 | 1.53

CTG-3D luminescence at 96 h
Conditions | 12.5 pM | 0.00025 µM | 0.005 µM | 0.1 µM | 1 µM | 10 µM | 100 µM | 625 fM
HCI-005.E2 | 1.65 ± 0.44 | 1.65 ± 0.42 | 1.41 ± 0.21 | 1.38 ± 0.29 | 1.17 ± 0.038 | 0.21 ± 0.15 | 0.199 ± 0.13 | 1.65 ± 0.18
HCI-017.E2 | 1.58 ± 0.35 | 1.73 ± 0.36 | 1.5 ± 0.31 | 1.44 ± 0.029 | 1.16 ± 0.32 | 0.47 ± 0.044 | 0.407 ± 0.099 | 1.77 ± 0.13
MDA-MB-231 | 4.45 ± 1.1 | 4.3 ± 1 | 3.73 ± 0.95 | 2.38 ± 0.54 | 1.55 ± 0.42 | 0.665 ± 0.23 | 0.568 ± 0.23 | 4.4 ± 0.96
